Measurements taken from patent publication US4186136A, “Novel benzothienyl amino (propyl and butyl) ketones, a method of preparation thereof and their application to therapeutics” (priority 1975, dated 1980).
In brackets after ≈: the same amount, converted by molar mass. Several values for one entry are separate records, joined by “and”; a condition that tells them apart may be missing. Equal values may be shown once. Where a name gives a salt, the structure may show the parent alone. Read-outs that look alike come from different tables or passages of the source.

Columns and labels:
[1] = Acute toxicity, oral, mouse (LD 50, Miller and Tainter); type: in vivo; settings: in vivo, death rate checked for seven days, read-out: 50% lethal dose (LD 50) (converted)
Experimental: The acute toxicity of the compounds of formula (I) were evaluated orally (esophagean probe) on a mouse deprived of food 18 hours before the beginning of the test. The products were placed in suspension in a solution of dilute carboxymethyl cellulose. Calculation of the 50 lethal dose (LD 50) was effected according to the method of Miller and Tainter (Miller L. C., Tainter M. L., Proc. Soc. Exptl. Biol. Med. 1944, 57, 261-264).
The death rate was checked for seven days following the treatment.
Table III gives the 50% lethal doses (LD 50) in milligrammes per kilogramme body weight.

[2] = tested on: human blood-plaques (aggregation with D.P.A.); test: Inhibition of blood-plaque aggregation induced by D.P.A.; type: cell-based; settings: for Ratio of a (X) to a (R), D.P.A. (head drawn): X 2.5×10^-5 g/ml, R 5×10^-4 g/ml; for inhibition at 25 µg/mL: Homo sapiens, read-out: Inhibitory activity of the blood-plaque aggregation, D.P.A., a (X)
Text: (§1) The blood plaques used for these studies were human blood-plaques introduced into the test in the form of blood-plaque rich plasmas (B.P.R.P.).
(§2) These latter were obtained as water-repellent material by slow centrifugation from human blood samples.
(§3) The study of blood-plaque aggregation was made by means of an aggregate-meter with continuous agitation and graphic recording according to the conventional method. (PROST R. S., SOUVERAIN C. H., DOUMENC J., Etude de l'agregation plaquettaire a l'aide de l'agregametre de MUSTARD-Coagulation, 1971, 4, 2, 145-151).
(§4) The agents employed for inducing aggregation were diphosphoric adenosine acid (D.P.A.), 1-(3',4'-di-hydroxyphenyl)-2-methylamino ethanol (adrenaline) and collagene. All these reactants were prepared from mother solutions diluted in a Michaelis' buffer. Their concentration in the test may vary according to the affinity of the blood-plaques.
(§5) An optimum concentration is thus sought by successive tests on the same B.P.R.P.
(§6) The inhibitory activity on the aggregation was evaluated by addition of the product under study to the B.P.R.P. before introduction of the aggregating agent.
(§7) The concentrations of compounds of formula I (X) in the B.P.R.P. are: C (X)=2.5×10^-5 g/ml for aggregation with D.P.A. and adrenaline, and C (X)=2×10^-5 g/ml for collagene.
(§8) The reference product (R) is 2,6-bis (diethanolamino)-4,8-dipiperidinopyrimido[5,4-d]pyramidine (known under the trademark "Dipyridamole") used in the concentration C (R)=5×10^-4 g/ml for aggregation with D.P.A. and adrenaline and C (R)=2×10^-4 g/ml for aggregation with collagene.
(§9) The following table IV indicates the activity of some compounds of formula I: a (X) the activity of the reference product: a (R) and the different values of the ratio: [formula]

[3] = tested on: human blood-plaques (aggregation with adrenaline); test: Inhibition of blood-plaque aggregation induced by adrenaline; type: cell-based; settings: for inhibition at 25 µg/mL: Homo sapiens, C (X)=2.5×10^-5 g/ml, read-out: Inhibitory activity of the blood-plaque aggregation, ADRENALINE, a (X); for Ratio of a (X) to a (R), ADRENALINE (head drawn): X 2.5×10^-5 g/ml, R 5×10^-4 g/ml
Text: as §1, §2, §3, §4, §5, §6, §7, §8, §9

[4] = tested on: human blood-plaques (aggregation with collagene); test: Inhibition of blood-plaque aggregation induced by collagene; type: cell-based; settings: for inhibition at 20 µg/mL: Homo sapiens, read-out: Inhibitory activity of the blood-plaque aggregation, COLLAGENE, a (X); for inhibition at 20 µg/mL / Inhibitory activity of the blood-plaque aggregation, COLLAGENE, a (X): C (X)=2×10^-5 g/ml; for Ratio of a (X) to a (R), COLLAGENE (head drawn): X 2×10^-5 g/ml, R 2×10^-4 g/ml
Text: as §1, §2, §3, §4, §5, §6, §7, §8, §9

[5] = tested on: rat's isolated duodenum; test: Spasmolytic activity on isolated duodenum contracted by barium chloride (Magnus); settings: for ED 50 (R) / ED 50 (X): relative to papaverine hydrochloride; for IC50: Rattus norvegicus, barium chloride contraction, Tyrode, 38° C., read-out: Spasmolytic activity ED 50 (X)
Experimental: The spasmolytic activity was studied on a rat's isolated duodenum maintained in a survival medium of an aerated Tyrode solution heated to 38° C. according to the technique of Magnus (Magnus R.-Archivs ges. Physiol., 1905, 180, 1-71).
The contracting agent used was barium chloride, the reference antogonist agent being papaverine hydrochloride (R). The average activity of the compounds of formula I (X) in comparison with that of the reference agent was expressed by calculating the ratio of the 50 efficient doses (ED 50) determined graphically on logarithmic paper: [formula]
For example: a substance having a relative activity expressed by the FIG. 2 presents an activity equal to twice that of papaverine hydrochloride.

[6] = tested on: phenylparaquinone (P.P.Q.) painful syndrome in a mouse; test: Analgesic and anti-inflammatory activity, phenylparaquinone (P.P.Q.) painful syndrome; type: in vivo; settings: for Analgesic and anti-inflammatory activity, percentage activity a(X): 50 mg/kg digestively; for a(X) / a(R), analgesic and anti-inflammatory activity: X 50 mg/kg, R (Galfenine) 25 mg/kg
Experimental: The intraperitoneal injection of phenylparaquinone (P.P.Q.) in a mouse causes the appearance of a painful syndrome appearing within 5 minutes of the injection and disappearing after about 30 minutes (SIEGMUND E. A., CADMUS A., LU G., J. Pharmacol. Exp. Therap. 1957, 119, 453). This painful syndrome manifests itself in the animal by a series of characteristic crises, more or less close together and fleeting, during which we can note a twisting or stretching of the body, a hollowing of the sides and a stretching of the hind legs.
It is therefore possible to note the number of crises in a given interval of time.
The preventive administration of analgesic or anti-inflammatory substances prevents the appearance of crises or reduces the frequency thereof.
The reference substance (R) used in the tests was the ester of N-(7-chloro-4 quinolyl) anthranilic acid and 2,3-dihydroxy n.propanol (known under the trademark Galfenine).
It was administered orally with a dose of 25 mg/kg.
The compounds of formula I (X) were administered digestively with a dose of 50 mg/kg.
The interval of time (t) which was chosen to evaluate the analgesic activity was between 10 and 15 minutes which is the period of maximum frequency of the crises. This activity was expressed in the following way:
n: number of crises observed in the control mice;
n': number of crises observed in mice previously treated with the reference substance (R);
n": number of crises observed in mice having received the substance (X).
The percentage activity of R is equal to [formula]
The percentage activity of X is equal to [formula]
The activity of X in relation to that of R is estimated by the ratio [formula]
For example: a compound X for which [formula] is 0.5 has an activity equal to half that of the reference product.

[7] = tested on: isolated heart of a gumea-pig; test: Vaso-dilatatory activity, coronary flow of isolated perfused heart; settings: for activation at 10 µg/mL: Locke, 37° C., read-out: Percentage flow increase P (X); for P (X) / P (R): relative to Dipyridamole, both 1×10^-5 g/ml
Experimental: The coronary flow is recorded, by means of an electronic device fitted with a Fleish totaliser, before and after addition of the substance X under study (concentration: 1×10^-5 g/ml), the reference product (R) being 2,6-bis (diethanolamino) 4,8-dipiperidinopyrimido[5,4-d]pyrimidine (known under the trademark "Dipyridamole") used at a concentration of 1×10^-5 g/ml.
The percentage flow increase P was calculated at the climax of the activity of X or R.

[8] = crises between 10 and 15 minutes
[9] = 1×10^-5 g/ml, coronary flow at climax of activity
[10] = reference product, C (R)=5×10^-4 g/ml

Structure (SMILES) | LD50 at 168 h ([1]; po) [mg/kg] | Ratio of a (X) to a (R), D.P.A. (head drawn) [2] | inhibition at 25 µg/mL ([2]; C (X)=2.5×10^-5 g/ml) [%] | inhibition at 25 µg/mL [3] [%] | Ratio of a (X) to a (R), ADRENALINE (head drawn) [3] | inhibition at 20 µg/mL [4] [%] | Ratio of a (X) to a (R), COLLAGENE (head drawn) [4] | ED 50 (R) / ED 50 (X) [5] | Analgesic and anti-inflammatory activity, percentage activity a(X) [6, 8] [%] | a(X) / a(R), analgesic and anti-inflammatory activity [6] | IC50 [5] [µg/mL] | activation at 10 µg/mL [7, 9] [%] | P (X) / P (R) [7] | further results
CCN(CC)CCCC(=O)c1csc2ccccc12 [Compound 9] | > 1200 | 1.9×10^-1 | 15 | 86 | 1 | 16 | 3×10^-1 | 8.10 | 47 | 1 |  |  |  | 
CC(C)N(CCCC(=O)c1csc2ccccc12)C(C)C [Compound 12] | 500 |  | 29 | 80 | 9.1×10^-1 | 12 | 2.3×10^-1 | 4.8 | 68 | 1.5 | 1.35 (≈ 4.45 µM) | 33 | 6.25 × 10^-1 | 
C=CCN(CC=C)CCCC(=O)c1cc2ccccc2s1 [Compound 3, 1-(benzothien-2'-yl)-4-N,N-diallylamino butanone oxalate] |  | 1.7×10^-1 | 15 |  |  | 13 | 1.95×10^-1 | 2.08 |  |  | 1.2 |  |  | 
O=C(CCCN1CCCCCC1)c1csc2ccccc12 [Compound 15] | 950 |  |  | 82 | 9.5×10^-1 |  |  | 1.6 | 51 | 1.13 | 3 (≈ 9.95 µM) | 172 | 2.42 | Inhibitory activity of the blood-plaque aggregation, D.P.A., a (X) ([2]; C (X)=2.5×10^-5 g/ml): 17%
O=C(CCCN1CCCCC1)c1csc2ccccc12 [Compound 14] | 850 |  |  | 42 | 5.5×10^-1 |  |  |  | 39 | 5.3 × 10^-1 |  |  |  | 
O=C(OCC(O)CO)c1ccccc1Nc1ccnc2cc(Cl)ccc12 (stereo not shown) [Galfenine, ester of N-(7-chloro-4 quinolyl) anthranilic acid and 2,3-dihydroxy n.propanol, reference compound] |  |  |  |  |  |  |  |  |  |  |  |  |  | Analgesic and anti-inflammatory activity, percentage activity a(R) ([6]; reference substance, 25 mg/kg orally, crises between 10 and 15 minutes, 25 mg/kg): 75% and 77% and 45% and 74%
OCCN(CCO)c1nc(N2CCCCC2)c2nc(N(CCO)CCO)nc(N3CCCCC3)c2n1 [Dipyridamole, 2,6-bis (diethanolamino)-4,8-dipiperidinopyrimido[5,4-d]pyramidine, reference compound] |  |  |  |  |  |  |  |  |  |  |  |  |  | LD50 at 168 h [1]: 2150 mg/kg; Inhibitory activity of the blood-plaque aggregation, D.P.A., a (R) [2, 10]: 87% and 53% and 79% and 55% and 85%; Inhibitory activity of the blood-plaque aggregation, ADRENALINE, a (R) [3, 10]: 91% and 78% and 86% and 88% and 77%; Inhibitory activity of the blood-plaque aggregation, COLLAGENE, a (R) ([4]; reference product, C (R)=2×10^-4 g/ml): 36%; Percentage flow increase P (R) ([7]; reference product, 1×10^-5 g/ml, coronary flow at climax of activity): 43% and 53% and 71%
O=C(CCCN1CCCCC1)c1cc2ccccc2s1 [Compound 5] | 1300 | 1.5×10^-1 | 8 | 84 | 1.1 | 12 | 1.4×10^-1 |  |  |  |  |  |  | 
CN(C)CCCC(=O)c1cc2ccccc2s1 [Compound 4] | 950 |  |  | 78 | 1 | 39 | 4.5×10^-1 |  |  |  |  |  |  | 
CCCN(CCC)CCCC(=O)c1csc2ccccc12 [Compound 11] | 1100 | 1.8×10^-1 | 10 | 51 | 5.8×10^-1 | 12 | 3.3×10^-1 | 6.2 | 48 | 6.5 × 10^-1 | 1.05 (≈ 3.46 µM) | 41 | 7.75 × 10^-1 | 
O=C(CCCN1CCOCC1)c1cc2ccccc2s1 [Compound 1, 1-(benzothien-2'-yl)-4-N-morpholino butanone] | 1200 |  |  | 9 | 1×10^-1 |  | 3.3×10^-1 |  |  |  |  | 28 | 6.5 × 10^-1 | Inhibitory activity of the blood-plaque aggregation, COLLAGENE, a (X) [4]: 12%
O=C(CCCN1CCCC1)c1csc2ccccc12 [Compound 13] | 760 | 2.3×10^-1 | 18 | 84 | 1.1 |  |  | 1.55 |  |  | 2.25 (≈ 8.23 µM) |  |  | 
O=C(CCCN1CCOCC1)c1cc2ccccc2s1 [Compound 6] |  | 1.7×10^-1 | 15 |  |  |  | 3.5×10^-1 |  | 55 | 7 × 10^-1 |  |  |  | Inhibitory activity of the blood-plaque aggregation, COLLAGENE, a (X) [4]: 32%
